Measured values taken from US20240366723A1, “COMBINATION THERAPY FOR THE TREATMENT OF ENTERIC NEUROPATHIES” (TRANSFERT PLUS, LIMITED PARTNERSHIP, priority 2021, published 2024).
“Also recorded” adds a separate entry of the source.

Tests used:
[1] = literature reports, various models; cited from earlier work
[2] = test system: mouse model for Trisomy 21 [Collagen VI]-associated HSCR; conditions: previous study, same mouse model; Soret et al., Gastroenterology 2020, Supplementary FIG. 1G; cited from earlier work
[3] = test system: Homozygous Holstein^Tg/Tg mice; assay: Survival of Hol^Tg/Tg mice after enema treatment (model of Trisomy 21 [Collagen VI]-associated HSCR); format: in vivo, mouse
Description: Mice. Homozygous Holstein^Tg/Tg mice (Hol^Tg/Tg; a model for Trisomy 21 [Collagen VI]-associated HSCR) were treated with either 10 μl enemas of GDNF (1 μg/μl), or 10 μl of GDNF combined with 5 mM of amino-butyrate acid (Butyrate) or other growth factors at 1 μg/μl, or vehicle (1×PBS) as control. Enemas were administered once a day from postnatal day (P) 4 until P8, and mice were monitored daily until P60 or megacolon-associated death. Survival graphs and statistical analyses were generated with GraphPad Prism software. One-way ANOVA followed by post-hoc Tukey multiple comparison test was carried out, and significance level was set at P<0.05. Number of biological replicates (n) of each cohort is indicated where relevant in Figures.
It was tested whether molecules known to have neurotrophic effects could improve the effect of GDNF on survival in a mouse model for Trisomy 21 [Collagen VI]-associated HSCR) (39).
The molecules that were tested in the present study are: Bone morphogenetic protein 4 (BMP4), Nerve growth factor (NGF), Brain-derived neurotrophic factor (BDNF), Mesencephalic Astrocyte Derived Neurotrophic Factor (MANF), Cerebral Dopamine Neurotrophic Factor (CDNF), Epidermal Growth Factor (EGF), Neurturin (NRTN), Fibroblast growth factor 2 (FGF2), butyrate and Retinoic Acid (RA).

CDNF: Cerebral Dopamine Neurotrophic Factor
Reported neurotrophic activity [1]: CDNF is essential for enteric neuronal development

NCCc1c[nH]c2ccc(O)cc12 [serotonin]
survival of mice, combination with GDNF relative to GDNF alone [2]: did not improve the survival of mice relative to GDNF alone

O=C1O[C@H]([C@@H](O)CO)C(O)=C1O [vitamin C]
survival of mice, combination with GDNF relative to GDNF alone [2]: did not improve the survival of mice relative to GDNF alone

FGF2: Fibroblast growth factor 2
Reported neurotrophic activity [1]: FGF2 enhances the proliferation and differentiation of

endothelin 3: molecule known to have neurotrophic effects, combined with GDNF in a previous study
survival of mice, combination with GDNF relative to GDNF alone [2]: did not improve the survival of mice relative to GDNF alone

EGF: Epidermal Growth Factor
Reported neurotrophic activity [1]: EGF is chemoattractant and chemokinetic molecule for

CCCC(=O)O [butyrate]
effect on survival of combination with GDNF relative to GDNF alone ([3]; 10 μl enema of GDNF 1 μg/μl combined with 5 mM butyrate or other growth factor at 1 μg/μl, once a day P4 until P8, monitored until P60): significantly potentiate the effect of recombinant GDNF; also recorded: acts synergistically with GDNF to improve survival
effect on mouse survival, substance alone ([3]; 10 μl enema once a day P4 until P8, butyrate 5 mM, compared with vehicle (1×PBS), monitored until P60): did not have any effect on survival; also recorded: no effect on mouse survival
